“And” between values parts separate entries of the source, which are not always exact repeats. Identical values can stand only once.

The subject of assay [1] is hepatocyte necrosis. Put plainly: Effect of inhibiting hepatic disorder induced by carbon tetrachloride: hepatocyte necrosis. The class given is in vivo, male ICR mice. As to conditions: CCl4 model, 50 mg/kg per day oral, 3 days. The method, then:
(§1) In the present invention, the inhibiting effect of the compound of formula (I) on hepatic disorder, induced by carbon tetrachloride and acetaminophene, was determined after oral administration of the novel compound according to the present invention to mouse as the experimental animal for 3 days. The degree of liver damage in respective experimental animal was determined by measuring ALT and LDH levels in blood [see, Biol. Pharm. Bull., 20, 4, 381-385, 1997; Toxicology and Applied Pharmacology, 95, 1-11, 1988], and further by removing the liver, staining (×100) the liver with hematoxylin and eosin and then observing with microscope to examine the degree of hepatocyte necrosis.
The liver protective effect of the compound according to the present invention was examined according to the known method [see, Philippe letteron et al., Biochemical Pharmacology, 39, 12, 2027-2034, 1990] as specifically described below.
The compound according to the present invention was suspended in corn oil and the resulting suspension was administered in an amount of 1.0 ml/kg. Each group was composed of 3 to 10 male ICR mice (5-6 weeks) and the test compound was orally administered for 3 days in the dose of 50 mg/kg per day. After the test compound was administered, carbon tetrachloride was intraperitoneally injected in an amount of 100 μl/kg. In this experiment, silymarin was used as the comparative compound. After 24 hours from administration of carbon tetrachloride, blood was taken from the test animal by cardiac perforation and ALT value in serum was determined. The result obtained is described in the following Table 2 (in which ALT value is represented by mean±SE). The ALT unit in serum was determined by centrifuging blood to separate serum as the supernatant, and then the separated serum were subjected to Reitman-Frankel method by means of a commercially available kit (BC101-O,P, Youngdong Pharm.). That is, DL-alanine and α-ketoglutarate were used as the substrate solution to which 2,4-dinitrophenylhydrazine was added to produce hydrazone. Then, sodium hydroxide was added to hydrazone to colorize and then the absorbance was measured at 505 nm.
(§2) In addition, liver was removed from the test animals, stained (×100) with hematoxylin and eosin and then observed by microscope. The degree of hepatocyte necrosis was evaluated according to the following 5 grades: 0 no lesion, 1 mild lesion, 2 moderate lesion, 3 severe lesion and 4 diffused lesion.

Assay [2] relates to hepatocyte necrosis. Description: Effect of inhibiting hepatic disorder induced by acetaminophen (APAP): hepatocyte necrosis. The class given is in vivo, male ICR mice. As to conditions: APAP model, 50 mg/kg per day oral, 3 days. The procedure: as §1, §2
(§3) The liver protective effect of the compound according to the present invention was examined according to the known method [see, Wang et al., Toxicology and applied Pharmacology, 136, 146-154, 1996] as specifically described below.
(§4) The compound according to the present invention was suspended in corn oil and the resulting suspension was administered in an amount of 1.0 ml/kg. Each group was composed of 3 to 10 male ICR mice (5-6 weeks) and the test compound was orally administered for 3 days in the dose of 50 mg/kg per day. After 2 hours from the last administration of the test compound, acetaminophen was orally administered in an amount of 0.5 g/kg. In this experiment, silymarin was used as the comparative compound. After 22 hours from the administration of acetaminphen, blood was taken from the individual test animal and ALT and LDH values in serum were determined. The results as obtained are described in the following Tables 4 and 5 (in which ALT and LDH values are represented by mean±SE). In addition, liver was removed from the test animals and then observed according to the same manner as Experiment 3 to evaluate the degree of hepatocyte necrosis.

Assay [3] relates to radiation damage. Description: Protective effect against radiation damage: survival of mouse. The class given is in vivo, male ICR mouse. As to conditions: 100 mg/kg per day, 2 days. An excerpt: Further, the present inventors have confirmed the protective effect of allylthiopyridazine derivative according to the present invention against radiation by administering the active compound to mouse, irradiating the radiation of 8 or 9Gy and, after a certain period, measuring the survival rate of mouse. For example, the survival rate during 30 days of 8Gy radiation can be seen from FIG. 3, and the specific experimental result is described in the following Table 7. Specifically, when 8Gy radiation is used, the survival rate during 30 days in the groups which only radiation was used was merely 48%, whereas the survival rates during 30 days in the groups to which the compounds of Examples 4 and 8 are previously administered were 76% and 70%, respectively. Therefore, it can be noted that the protective effect of the compound according to the present invention against radiation is proven to be a very significant novel discovery.
Protective effect against radiation damage
In order to confirm the protective effect of the compound of the present invention against radiation damage, the following test was conducted.
Male ICR mouse was bred in a chamber to which sterile atmosphere is supplied, at inner temperature 20-23° C. and relative humidity 50% with sufficient water and feed. When the weight of mouse reached 20-25 g, the compound of the present invention was suspended in corn oil and then administered for 2 days in the dose of 100 mg/kg (1 ml/kg) per day. After 3 hours from the last administration of the test compound, 8 or 9 Gy radiation was irradiated to mouse. Specifically, mouse was introduced into a box made of acryl which limited his movement, and then radiation produced from ^60 Co radioactive material was irradiated to whole body at the irradiating rate of 115.8 cGy/min. The dimension of acryl box was 31×31 cm^2, which is the same as the irradiating area of radiation. After 7 days of irradiation of γ-ray, mouse was sacrificed to conduct the histopathologic observation. The result of examining the survival rate during 30 days of irradiation of 8 Gy radiation is shown in FIG. 3, and the result of determining the survival rate after a certain period (10, 13 or 30 days) from irradiation of 8 or 9 Gy radiation is described in the following Table 7.

Assay [4] relates to serum ALT (alanine aminotransferase). Put plainly: Effect of inhibiting hepatic disorder induced by acetaminophen (APAP): serum ALT. As to conditions: APAP 0.5 g/kg oral, compound 50 mg/kg per day oral, 3 days. The class given is in vivo, male ICR mice.
From the text: In addition, the liver protective effects of the compound of the present invention can also be confirmed by acetaminophen model [see, Wang et al., Toxicology and applied Pharmacology, 136, 146-154, 1996]. Acetaminophen is rapidly metabolized by CYP2E1 to cause hepatic toxicity, which results in structural and functional change in liver cellular membrane, causing necrosis in hepatic lobule, an increase in blood ALT and LDH (lactate dehydrogenase) levels.
as §1
Effect of inhibiting hepatic disorder induced by acetaminophen (APAP)
as §3, §4

In the case of `C=CCSc1ccc(OC)nn1` [Example 4, 3-methoxy-6-allylthiopyridazine], the entries for the “Degree of necrosis 0: number of animals” value in assay [1] (grade 0 no lesion) and in assay [2] (grade 0 no lesion) were 0 and 5, respectively. Besides, the “Degree of necrosis 1: number of animals” value in assay [1] (grade 1 mild lesion) is on record as 1; in assay [2] (grade 1 mild lesion), 4. Moreover, the “Degree of necrosis 2: number of animals” value is 5 in assay [1] (grade 2 moderate lesion) and 1 in assay [2] (grade 2 moderate lesion). For the same compound, the entries for the “Degree of necrosis 3: number of animals” value in assay [1] (grade 3 severe lesion) and in assay [2] (grade 3 severe lesion) were 2 and 0, respectively. Moreover, the “Degree of necrosis 4: number of animals” value in assay [1] (grade 4 diffused lesion) is given as 2; in assay [2] (grade 4 diffused lesion), 0. The survival number in assay [3] (10 days of 9 Gy radiation) was 16/23; in assay [3] (13 days of 9 Gy radiation), 3/23; in assay [3] (30 days of 8 Gy radiation), 18/23. In addition, the survival rate in assay [3] (10 days of 9 Gy radiation) is 70%; in assay [3] (13 days of 9 Gy radiation), 13%; in assay [3] (30 days of 8 Gy radiation, 100 mg/kg/day), 78% and 76%. In addition, in assay [4], the “Inhibiting rate (serum ALT)” value was found to be 97%. The “Serum ALT value” in assay [4] (mean±SE) is reported as 186 ± 118 KA unit/l.
